Reference: patent US7378079B2, “Agents for imaging and diagnostic methods using them” (NST Neurosurvival Technologies Ltd., priority 2002, dated 2008)
Entries after “also recorded” stand apart in the source; their conditions may differ.

Test system: B16 melanoma
Test: Imaging of tumor cell death in B16 melanoma in vivo, fluorescent microscopy
Set-up: species or system c57/black mice
Conditions: BiCNU 35 mg/Kg; compound i.v. 1-3 mg/animal after 24 h; tumors removed 2 h later
Description: Mice bearing B16-melanoma were treated with chemotherapy (BiCNU 35 mg/Kg, one dose), and then injected intravenously with NST920B. Animals were sacrificed two hours later, and the tumor was removed and subjected to fluorescent histopathological assessment, to identify binding of NST920B. Shown is fluorescent microscopic image of a section of the tumor.
Melanoma tumors were induced in c57/black mice by subcutaneous injection of B16-F10 cell line (ATCC CRL-6475). The cell line was maintained in culture in Dulbecco's modified Eagle's medium (DMEM), supplemented with 4 mM of L-glutamine; 100 units/ml of penicillin; 100 μg/ml of streptomycin; 12.5 units/ml of nystatin and 10% of fetal calf serum (FCS). For tumor induction, 10^5 cells in a volume of 100 μl were injected […] to 8 week-old male mice. 15 days later, when tumor diameter reached 5-6 mm, the mice were treated with chemotherapy (BiCNU, 1,3-bis(2-chloroethyl)-1-nitrosourea, at a single dose of 35 mg/Kg). Twenty-four hours after chemotherapy, the mice were injected intravenously with the compounds of the invention NST920B, NST930 and Re-NST904 (1-3 mg/animal). Two hours later, tumors were removed, frozen in liquid nitrogen, and subjected to cryosection. Evaluation of fluorescent signal was performed using fluorescent microscope.

CN(C)c1cccc2c(S(=O)(=O)N(CCOCCN(CC(=O)O)S(=O)(=O)c3cccc4c(N(C)C)cccc34)CC(=O)O)cccc12 [NST920B]
uptake by viable, non-apoptotic tumor cells, B16 melanoma: did not manifest such uptake
uptake into apoptotic tumor cells, B16 melanoma: Uptake of NST920B into apoptotic cells is demonstrated; also recorded: selective uptake
